Here are results for five compounds from patent US9980943B2, “Methods of treating muscular dystrophy” (BOARD OF REGENTS OF THE NEVADA SYSTEM OF HIGHER EDUCATION, …, priority 2013, dated 2018).

Holding throughout (assay type): cell-based, mouse
Assay [1] relates to β-galactosidase in CMV-LacZ C2C12 myoblasts. The assay can be described thus: CMV-LacZ secondary screen in C2C12 myoblasts (β-Gal stabilizing assay). As to conditions: for CMV-LACZ in Myoblasts (β-galactosidase activity relative to DMSO): CMV-LacZ C2C12 myoblasts; for CMV-LACZ in Myoblasts, value relative to DMSO: SU9516 analogs, C2C12 CMV-LacZ, N=2. In short, it runs like this: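 A secondary screen identifies compounds that stabilize β-gal independently of the native promoter, using CMV-LacZ C2C12 cells. Curves span 0.5–40 μM at six levels, in duplicate.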

Assay [2] deals with β-galactosidase in CMV-LacZ C2C12 myotubes. The assay can be described thus: CMV-LacZ secondary screen in C2C12 myotubes (β-Gal stabilizing assay). To be noted: for CMV-LACZ in Myotubes, signal relative to DMSO: C2C12 CMV-LacZ myotubes, fold relative to DMSO; for CMV-LACZ in Myotubes, value relative to DMSO: SU9516 analogs, C2C12 CMV-LacZ, N=2. Summed up: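 β-gal stabilization was measured in C2C12 myoblasts or myotubes stably transfected with a CMV-driven LacZ construct, using the FDG β-gal assay. Compounds were tested in dose-response at 0.5, 1, 5, 10, 20 and 40 μM, with two replicates per point.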

Assay [3] deals with α7 integrin (LacZ reporter in α7+/LacZ myotubes). Put plainly: Myotube α7 integrin FDG assay (Burkin assay in myotubes, 96-well). As to conditions: for Burkin Assay in Myotubes, value relative to DMSO: SU9516 analogs, 96-well, N=3-6.
For assay [4], the system named is α7 integrin (LacZ reporter in α7βgal+/− myoblasts). The assay can be described thus: Myoblast α7+/LacZ integrin FDG assay (Burkin assay in myoblasts, 96-well). As to conditions: 96-well; for Burkin Assay in Myoblasts, signal relative to DMSO: α7+/LacZ myoblasts; for Burkin Assay in Myoblasts, value relative to DMSO: SU9516 analogs, N=3-6.

Turning to `O=C(O)c1csc(-c2cccs2)n1` [MLS000760876-01], the “CMV-LACZ in Myoblasts (β-galactosidase activity relative to DMSO)” value in assay [1] (0.5 uM) is given as 0.9069; in assay [1] (1 uM), 1.0546; in assay [1] (5 uM) it was 0.8293; in assay [1] (10 uM) it was 0.8973; in assay [1] (20 uM), 0.9396; in assay [1] (40 uM), 0.8504. Also, the “CMV-LACZ in Myotubes, signal relative to DMSO” value worked out at 1.0248 in assay [2] (0.5 uM); 1.1010 in assay [2] (1 uM); 1.1074 in assay [2] (5 uM); 0.9789 in assay [2] (10 uM); 0.9482 in assay [2] (20 uM); 1.2565 in assay [2] (40 uM). For the same compound, the “Burkin Assay in Myotubes, α7 integrin LacZ reporter signal relative to DMSO” value in assay [3] (0.5 uM) is 1.2427; in assay [3] (1 uM) it was 1.256; in assay [3] (5 uM) it was 1.249; in assay [3] (10 uM), 0.9755; in assay [3] (20 uM), 0.8634; in assay [3] (40 uM), 0.8993. The “Burkin Assay in Myoblasts, signal relative to DMSO” value is 1.0287 in assay [4] (0.5 uM); 0.9856 in assay [4] (1 uM); 1.812 in assay [4] (5 uM); 0.9113 in assay [4] (10 uM); 1.102 in assay [4] (20 uM); 0.9504 in assay [4] (40 uM).
In the case of `Cc1ccc2c(c1)/C(=C/c1ccc(F)cc1)C(=O)N2` [MLS001202366-01], the “CMV-LACZ in Myoblasts, value relative to DMSO” value is given as 0.7656 in assay [1] (0.5 uM); 0.6431 in assay [1] (1 uM); 1.0533 in assay [1] (5 uM); 1.3214 in assay [1] (10 uM); 0.7222 in assay [1] (20 uM); 0.3322 in assay [1] (40 uM). For the same compound, the “CMV-LACZ in Myotubes, value relative to DMSO” value stood at 0.9844 in assay [2] (0.5 uM); 1.0570 in assay [2] (1 uM); 0.8072 in assay [2] (5 uM); 0.9927 in assay [2] (10 uM); 0.8329 in assay [2] (20 uM); 1.0847 in assay [2] (40 uM). Moreover, the “Burkin Assay in Myotubes, value relative to DMSO” value is recorded as 1.114 in assay [3] (0.5 uM); 1.099 in assay [3] (1 uM); 1.089 in assay [3] (5 uM); 0.9194 in assay [3] (10 uM); 0.5272 in assay [3] (20 uM); 0.5105 in assay [3] (40 uM). The “Burkin Assay in Myoblasts, value relative to DMSO” value in assay [4] (0.5 uM) is listed as 1.007; in assay [4] (1 uM) it was 0.9698; in assay [4] (5 uM), 0.8762; in assay [4] (10 uM), 0.7458; in assay [4] (20 uM), 0.4873; in assay [4] (40 uM), 0.2456.
For `COC(=O)c1ccc(N=Nc2ccccc2)cc1` [MLS001005712-01], the “CMV-LACZ in Myoblasts (β-galactosidase activity relative to DMSO)” value was found to be 1.0188 in assay [1] (0.5 uM); 1.2385 in assay [1] (1 uM); 0.8934 in assay [1] (5 uM); 0.9125 in assay [1] (10 uM); 1.0241 in assay [1] (20 uM); 1.0230 in assay [1] (40 uM). In addition, the “CMV-LACZ in Myotubes, signal relative to DMSO” value is 1.0684 in assay [2] (0.5 uM); 1.0379 in assay [2] (1 uM); 0.9623 in assay [2] (5 uM); 0.8075 in assay [2] (10 uM); 1.1133 in assay [2] (20 uM); 1.3167 in assay [2] (40 uM). The “Burkin Assay in Myotubes, α7 integrin LacZ reporter signal relative to DMSO” value amounted to 0.8704 in assay [3] (0.5 uM); 1.173 in assay [3] (1 uM); 0.9472 in assay [3] (5 uM); 0.939 in assay [3] (10 uM); 0.7885 in assay [3] (20 uM); 0.7405 in assay [3] (40 uM). The “Burkin Assay in Myoblasts, signal relative to DMSO” value in assay [4] (0.5 uM) came to 1.1047; in assay [4] (1 uM) it was 1.17; in assay [4] (5 uM) it was 0.926; in assay [4] (10 uM) it was 0.8783; in assay [4] (20 uM) it was 0.8763; in assay [4] (40 uM), 0.764.
With `CCN(C(=O)c1ccc(S(=O)(=O)N(C)C)cc1)C(C)C(=O)Nc1ccc(C)cc1` (stereo not drawn) [MLS001170856-01], the “CMV-LACZ in Myoblasts (β-galactosidase activity relative to DMSO)” value in assay [1] (0.5 uM) was found to be 0.7337; in assay [1] (1 uM), 0.9857; in assay [1] (5 uM), 0.7938; in assay [1] (10 uM) it was 1.0004; in assay [1] (20 uM) it was 0.8881; in assay [1] (40 uM), 0.8389. Besides, the “CMV-LACZ in Myotubes, signal relative to DMSO” value in assay [2] (0.5 uM) turned out to be 1.1095; in assay [2] (1 uM), 0.9105; in assay [2] (5 uM), 1.0074; in assay [2] (10 uM), 1.0562; in assay [2] (20 uM), 1.1518; in assay [2] (40 uM), 0.8753. Besides, the “Burkin Assay in Myotubes, α7 integrin LacZ reporter signal relative to DMSO” value in assay [3] (0.5 uM) is 0.8296; in assay [3] (1 uM), 0.7436; in assay [3] (5 uM), 0.91; in assay [3] (10 uM), 1.064; in assay [3] (20 uM), 0.7763; in assay [3] (40 uM) it was 1.029. The “Burkin Assay in Myoblasts, signal relative to DMSO” value came to 0.95 in assay [4] (0.5 uM); 0.8651 in assay [4] (1 uM); 0.9744 in assay [4] (5 uM); 1.244 in assay [4] (10 uM); 0.9217 in assay [4] (20 uM); 0.7133 in assay [4] (40 uM).
On to `CCNC(=O)C(=O)Nc1cc2c3c(c1)CCN3C(=O)CC2` [MLS001167798-01], for which the “CMV-LACZ in Myoblasts (β-galactosidase activity relative to DMSO)” value in assay [1] (0.5 uM) is 1.0342; in assay [1] (1 uM), 0.7750; in assay [1] (5 uM) it was 1.1822; in assay [1] (10 uM) it was 1.1494; in assay [1] (20 uM) it was 1.2196; in assay [1] (40 uM), 1.1452. The “CMV-LACZ in Myotubes, signal relative to DMSO” value in assay [2] (0.5 uM) is listed as 0.9143; in assay [2] (1 uM), 0.9295; in assay [2] (5 uM), 1.1987; in assay [2] (10 uM), 1.2238; in assay [2] (20 uM), 1.3337; in assay [2] (40 uM), 1.2800. Further, the “Burkin Assay in Myotubes, α7 integrin LacZ reporter signal relative to DMSO” value in assay [3] (0.5 uM) came out at 1.051; in assay [3] (1 uM), 0.9243; in assay [3] (5 uM), 1.118; in assay [3] (10 uM) it was 0.9382; in assay [3] (20 uM) it was 0.7983; in assay [3] (40 uM), 0.7231. For the same compound, the “Burkin Assay in Myoblasts, signal relative to DMSO” value is on record as 1.058 in assay [4] (0.5 uM); 1.166 in assay [4] (1 uM); 1.277 in assay [4] (5 uM); 1.064 in assay [4] (10 uM); 1.051 in assay [4] (20 uM); 1.006 in assay [4] (40 uM).
